The results in this text go back to patent publication US8058243B2, “Method for treating a brain cancer with ifenprodil” (HSC Research and Development Limited Partnership, priority 2006, dated 2011).

Structures can show the parent of a compound that is named as a salt. Where two headings read alike, the source gives them in different places.

The assay concerns murine neural precursor cells (neurosphere cultures). The assay is described as follows: HTS of LOPAC library against secondary neurosphere cultures, MTT proliferation assay at 3 μM, day 7 (z score, P value). In kind it is cell-based, mouse. (Tetrazolium dyes change colour on reduction, which living cells bring about.)
Where [1] appears, read: LOPAC library screen, 3 μM, MTT, secondary neurosphere cultures, day 7.
[2] abbreviates: LOPAC primary screen, neurosphere MTT proliferation, 3 μM, day 7.
[3] abbreviates: yes/no: significantly inhibited neurosphere proliferation in primary screen.
The mark [4] stands for this setting: LOPAC library screen, 3 μM, MTT, neurosphere cultures.
Setting [5] is: yes = significantly inhibited neurosphere proliferation (P<0.01) in the primary screen.
[6] abbreviates: LOPAC screen, neurosphere MTT proliferation, 3 μM, day 7.
The mark [7] stands for this setting: yes/no: significantly inhibited neurosphere proliferation (P<0.01) in primary screen.
Setting [8] is: LOPAC library screen at 3 μM, secondary neurosphere cultures, MTT.
Setting [9] is: primary LOPAC screen, 3 μM, MTT, neurosphere proliferation.
[10] abbreviates: yes/no: significantly inhibited neurosphere proliferation in the primary screen.
The mark [11] stands for this setting: yes/no: significantly inhibited neurosphere proliferation (P<0.01) in the primary screen.

For the compound `Cl.Cl.NCCCCN` [Putrescine dihydrochloride], the Activity result is recorded as “no”, the “Z Score” value is given as −0.7689 and the Z score is given as −0.769.
On to `NC(=O)c1cnccn1` [Pyrazinecarboxamide], for which, under setting [1], the “Z Score” value is −1.617. Further, under setting [2], the Z score is −1.617. The Activity entry under setting [3] was “no”.
Regarding `CN(C)C(=O)Oc1ccc[n+](C)c1` [Pyridostigmine bromide], the “Z Score” value came to 0.2311. Further, the Z score under setting [2] amounted to 0.231. Under setting [3], the Activity entry was “no”.
On to `COc1ccc(CN(CCN(C)C)c2ccccn2)cc1` [Pyrilamine maleate], for which the “Z Score” value under setting [4] amounted to 0.9893. Under setting [2], this compound displayed a Z score of 0.989. Under setting [5], the Activity result is reported as “no”.
For `Oc1ccccc1O` [Pyrocatechol], the “Z Score” value is on record as −2.053. Besides, the Z score under setting [6] is −2.053. Also, the Activity result under setting [7] is listed as “no”.
For the compound `C[C@@H]1C(=O)NC2=Nc3cccc(Cl)c3CN21` [Quazinone], under setting [4], the “Z Score” value stood at 0.2046. This compound also gave a Z score under setting [2] of 0.205. The Activity result under setting [3] is on record as “no”.
With `O.O.O=c1c(O)c(-c2ccc(O)c(O)c2)oc2cc(O)cc(O)c12` [Quercetin dihydrate], the “Z Score” value is recorded as −2.302. Moreover, the Z score under setting [2] was −2.302. Under setting [3], the Activity result is reported as “no”.
Take `CCN(CC)CCCC(C)Nc1c2ccc(Cl)cc2nc2ccc(OC)cc12` (stereo not drawn) [Quinacrine dihydrochloride]: the Activity entry is “yes”. For the same compound, the “Z Score” value under setting [1] is −9.712. Besides, under setting [2], the Z score is −9.712.
Consider `CCCN1CCC[C@@H]2Cc3nc(N)ncc3C[C@H]21` [Quinelorane dihydrochloride], for which, under setting [2], the Z score is recorded as −1.567. In addition, the Activity result under setting [3] was “no”.
For the compound `CCCN1CCC[C@@H]2Cc3nc(N)ncc3C[C@H]21.Cl.Cl` [Quinelorane dihydroechloride], the “Z Score” value is −1.567.
As for `C=C[C@H]1C[N@@]2CC[C@H]1C[C@@H]2[C@@H](O)c1ccnc2ccc(OC)cc12` [Quinidine sulfate], the “Z Score” value under setting [1] is given as −1.93. Besides, the Z score under setting [2] is on record as −1.930. The Activity entry under setting [3] is recorded as “no”.
On to `C=C[C@H]1C[N@@]2CC[C@H]1C[C@H]2[C@H](O)c1ccnc2ccc(OC)cc12` [Quinine sulfate], for which, under setting [8], the “Z Score” value is listed as −0.2686. Besides, under setting [2], the Z score is −0.269. Under setting [3], the Activity result is given as “no”.
Turning to `O=C(O)c1cccnc1C(=O)O` [Quinolinic acid], where the note is “168 h, 3 µM”, the “Z Score” value is on record as −2.419 and the Z score is on record as −2.419. Also, under setting [5], the Activity result was “yes”.
As to `O=C(O)/C=C\C(=O)O.O=[N+]([O-])c1ccc2nc(N3CCNCC3)ccc2c1` [Quipazine, 6-nitro-, maleate], the “Z Score” value under setting [4] is 0.9782. The Z score under setting [2] is recorded as 0.978. Besides, the Activity entry under setting [3] is “no”.
With `CN1CCN(c2ccc3ccccc3n2)CC1.O=C(O)/C=C\C(=O)O.O=C(O)/C=C\C(=O)O` [Quipazine, N-methyl-, dimaleate], the “Z Score” value under setting [8] is reported as −0.3254. The Z score under setting [2] was −0.325. In addition, the Activity result under setting [3] was “no”.
With `CCCN1CCC[C@H](c2cccc(O)c2)C1.Cl` [R(+)-3PPP hydrochloride], the “Z Score” value is −2.213. Moreover, under setting [2], the Z score was −2.213. Further, the Activity entry under setting [3] is “no”.
`Br.C=CCN1CCc2c(cc(O)c(O)c2Br)[C@@H](c2ccccc2)C1` [R(+)-6-Bromo-APB hydrobromide]: the “Z Score” value is reported as 1.532. Under setting [6], this compound displayed a Z score of 1.532. Also, under setting [7], the Activity result is reported as “no”.
For the compound `CC(C)NC[C@@H](O)COc1ccc(CC(N)=O)cc1` [R(+)-Atenolol], the “Z Score” value (LOPAC library screen at 3 μM, MTT, secondary neurosphere cultures, screened in singlets) is recorded as 3.764. Further, the Z score under setting [9] turned out to be 3.764. For the same compound, the Activity entry under setting [10] is “no”.
`C[C@@]1(C2CCCC2)Cc2cc(OCC(=O)O)c(Cl)c(Cl)c2C1=O` [R(+)-IAA-94]: the “Z Score” value is recorded as −0.01015. The Z score under setting [2] was −0.010. Besides, the Activity result under setting [7] is given as “no”.
As to `CCN(CC)C(=O)NC1C=C2c3cccc4[nH]cc(c34)C[C@H]2N(C)C1.O=C(O)/C=C\C(=O)O` (stereo partly drawn) [R(+)-Lisuride hydrogen maleate], the “Z Score” value is reported as −1.041. Also, the Z score under setting [2] is −1.041.
With `CN1CCc2cc(Cl)c(O)cc2[C@@H](c2ccccc2)C1.Cl` [R(+)-SCH-23390 hydrochloride], the “Z Score” value under setting [4] amounted to 1.375. Under setting [6], the Z score was 1.375. Under setting [7], the Activity result is listed as “no”.
Regarding `CCN(CC)C(=O)N[C@H]1C[C@@H]2c3cccc4[nH]cc(c34)C[C@H]2N(C)C1` [R(+)-Terguride], the “Z Score” value under setting [1] was −2.004. The Z score under setting [9] is on record as −2.004. For the same compound, the Activity entry under setting [10] was “no”.
Turning to `CCCN(CCC)[C@@H]1CCc2c(F)ccc(O)c2C1.Cl` [R(+)-UH-301 hydrochloride], the “Z Score” value is given as −2.517. For the same compound, under setting [2], the Z score is given as −2.517. For the same compound, the Activity result under setting [11] is given as “yes”.
With `CN1CCc2cc(O)cc3c2[C@H]1Cc1ccc(O)c(O)c1-3` [R(−)-2,10,11-Trihydroxyaporphine], under setting [2], the Z score was −3.309. In addition, the Activity entry under setting [11] was “yes”.
Turning to `COc1cc2c(cc1OC)[C@@H](c1ccccc1)CN(C)CC2.O=C(O)/C=C\C(=O)O` [R(−)-SCH-12679 maleate], the “Z Score” value is reported as 1.6092. Also, under setting [9], the Z score was 1.609. Moreover, the Activity entry under setting [10] is reported as “no”.
With `Br.CCCN(CCC)[C@@H]1CCc2ccc(O)cc2C1` [R-(+)-7-Hydroxy-DPAT hydrobromide], the “Z Score” value was −2.59. Further, under setting [2], the Z score was −2.590. Also, the Activity entry under setting [11] is listed as “yes”.
Turning to `Br.CCCN(CCC)[C@@H]1CCc2cccc(O)c2C1` [R-(+)-8-Hydroxy-DPAT hydrobromide], the “Z Score” value under setting [8] is reported as −0.6916. Further, the Z score under setting [2] is reported as −0.692. The Activity entry under setting [11] is recorded as “no”.
`CCCCCC(O)c1cccc(OCc2ccc3ccccc3n2)c1` (stereo not drawn) [REV 5901]: where the note is “168 h, 3 µM”, the “Z Score” value is listed as −1.184 and the Z score is −1.184. Also, the Activity result under setting [3] was “no”.
For `COC1(C2=NCCN2)COc2ccccc2O1.Cl` (stereo not drawn) [RX 821002 hydrochloride], the “Z Score” value is given as 0.249. The compound also returned a Z score under setting [2] of 0.249. In addition, the Activity entry under setting [3] is “no”.
With `O=C(c1ccc(OCCN2CCCCC2)cc1)c1c(-c2ccc(O)cc2)sc2cc(O)ccc12` [Raloxifene hydrochloride], the “Z Score” value under setting [1] is on record as −9.222. For the same compound, the Z score under setting [2] is −9.222. In addition, the Activity entry under setting [5] is “yes”.
As to `CNC(=C[N+](=O)[O-])NCCSCc1ccc(CN(C)C)o1` [Ranitidine hydrochloride], under setting [4], the “Z Score” value came out at 0.02275. Moreover, the Z score under setting [2] came to 0.023. In addition, under setting [3], the Activity result is reported as “no”.
For the compound `COc1ccccc1OCC(O)CN1CCN(CC(=O)Nc2c(C)cccc2C)CC1` (stereo not drawn) [Ranolazine dihydrochloride], the “Z Score” value under setting [1] is on record as −2.104. In addition, the Z score under setting [2] is −2.104. Also, the Activity entry under setting [3] was “no”.
For the compound `COC(=O)[C@H]1[C@H]2C[C@H]3c4[nH]c5ccccc5c4CCN3C[C@H]2CC[C@@H]1O` [Rauwolscine hydrochloride], for the setting “168 h, 3 µM”, the “Z Score” value is given as −1.747 and the Z score was −1.747. Moreover, the Activity entry under setting [3] is reported as “no”.
With `COC(=O)[C@H]1[C@H]2C[C@@H]3c4[nH]c5cc(OC)ccc5c4CCN3C[C@H]2C[C@@H](OC(=O)c2cc(OC)c(OC)c(OC)c2)[C@@H]1OC` [Reserpine], under setting [8], the “Z Score” value was −1.023. Further, under setting [2], the Z score is −1.023. Further, the Activity result under setting [5] was “no”.
As to `Oc1ccc(C=Cc2cc(O)cc(O)c2)cc1` [Resveratrol], under setting [8], the “Z Score” value is recorded as −0.2295. Moreover, the Z score under setting [2] is −0.230. Also, under setting [3], the Activity result was “no”.
As to `CC1=C(/C=C/C(C)=C/C=C/C(C)=C/C(=O)O)C(C)(C)CCC1` [Retinoic acid], the “Z Score” value under setting [8] is −0.8657. Further, the Z score under setting [2] was −0.866.
In the case of `NC(=O)c1ncn([C@@H]2O[C@H](CO)[C@@H](O)[C@H]2O)n1` [Ribavirin], the Activity result is “no”.
For `C1COC(NC(C2CC2)C2CC2)=N1` [Rilmenidine hemifumarate], under setting [4], the “Z Score” value stood at 0.5264. Further, the Z score under setting [2] worked out at 0.526. The Activity result under setting [3] is “no”.
As for `Nc1nc2ccc(OC(F)(F)F)cc2s1` [Riluzole], the “Z Score” value under setting [8] is on record as −1.033. Also, under setting [2], the Z score is on record as −1.033.
Regarding `Cc1nc2n(c(=O)c1CCN1CCC(c3noc4cc(F)ccc34)CC1)CCCC2` [Risperidone], the “Z Score” value is listed as 1.694. In addition, under setting [2], the Z score is listed as 1.694. The Activity entry under setting [3] is recorded as “no”.
For `Cc1nc2sccn2c(=O)c1CCN1CCC(=C(c2ccc(F)cc2)c2ccc(F)cc2)CC1` [Ritanserin], under setting [8], the “Z Score” value is recorded as −0.6957. Further, under setting [2], the Z score is reported as −0.696. Besides, the Activity result under setting [3] is “no”.
In the case of `CC(NCCc1ccc(O)cc1)C(O)c1ccc(O)cc1` (stereo not drawn) [Ritodrine hydrochloride], under setting [1], the “Z Score” value is −2.332. Besides, the Z score under setting [2] is −2.332. The Activity entry under setting [11] was “yes”.
As to `CNc1cc(NS(=O)(=O)c2ccc(N)cc2)nc(NC)n1.Cl.Cl` [Ro 04-6790 dihydrochloride], the “Z Score” value turned out to be 0.3428. Moreover, the Z score under setting [2] was 0.343. Also, the Activity entry under setting [3] was “no”.
For `NC(=O)c1ccc(OCC(O)CN2CC=C(c3ccc(F)cc3)CC2)cc1` (stereo not drawn) [Ro 8-4304], the “Z Score” value is on record as −2.188. In addition, under setting [2], the Z score is recorded as −2.188. Also, the Activity result under setting [3] is given as “no”.
